For orientation: IC50 means the midpoint of a concentration-inhibition curve. High values mean lower potency, low ones higher potency.

The structures appear in SMILES notation.

For this assay, the target named is Sodium channel protein type 9 subunit alpha (Homo sapiens, UniProt Q15858). As to the kind of experiment: Inhibition of human Nav1.7 expressed in HEK293 cells at holding potential yielding 20 to 50% inactivation measured after 3 mins by patchXpress electrophysiology assay. In kind it is cell-based.
Sequence of Sodium channel protein type 9 subunit alpha (Q15858 whole entry): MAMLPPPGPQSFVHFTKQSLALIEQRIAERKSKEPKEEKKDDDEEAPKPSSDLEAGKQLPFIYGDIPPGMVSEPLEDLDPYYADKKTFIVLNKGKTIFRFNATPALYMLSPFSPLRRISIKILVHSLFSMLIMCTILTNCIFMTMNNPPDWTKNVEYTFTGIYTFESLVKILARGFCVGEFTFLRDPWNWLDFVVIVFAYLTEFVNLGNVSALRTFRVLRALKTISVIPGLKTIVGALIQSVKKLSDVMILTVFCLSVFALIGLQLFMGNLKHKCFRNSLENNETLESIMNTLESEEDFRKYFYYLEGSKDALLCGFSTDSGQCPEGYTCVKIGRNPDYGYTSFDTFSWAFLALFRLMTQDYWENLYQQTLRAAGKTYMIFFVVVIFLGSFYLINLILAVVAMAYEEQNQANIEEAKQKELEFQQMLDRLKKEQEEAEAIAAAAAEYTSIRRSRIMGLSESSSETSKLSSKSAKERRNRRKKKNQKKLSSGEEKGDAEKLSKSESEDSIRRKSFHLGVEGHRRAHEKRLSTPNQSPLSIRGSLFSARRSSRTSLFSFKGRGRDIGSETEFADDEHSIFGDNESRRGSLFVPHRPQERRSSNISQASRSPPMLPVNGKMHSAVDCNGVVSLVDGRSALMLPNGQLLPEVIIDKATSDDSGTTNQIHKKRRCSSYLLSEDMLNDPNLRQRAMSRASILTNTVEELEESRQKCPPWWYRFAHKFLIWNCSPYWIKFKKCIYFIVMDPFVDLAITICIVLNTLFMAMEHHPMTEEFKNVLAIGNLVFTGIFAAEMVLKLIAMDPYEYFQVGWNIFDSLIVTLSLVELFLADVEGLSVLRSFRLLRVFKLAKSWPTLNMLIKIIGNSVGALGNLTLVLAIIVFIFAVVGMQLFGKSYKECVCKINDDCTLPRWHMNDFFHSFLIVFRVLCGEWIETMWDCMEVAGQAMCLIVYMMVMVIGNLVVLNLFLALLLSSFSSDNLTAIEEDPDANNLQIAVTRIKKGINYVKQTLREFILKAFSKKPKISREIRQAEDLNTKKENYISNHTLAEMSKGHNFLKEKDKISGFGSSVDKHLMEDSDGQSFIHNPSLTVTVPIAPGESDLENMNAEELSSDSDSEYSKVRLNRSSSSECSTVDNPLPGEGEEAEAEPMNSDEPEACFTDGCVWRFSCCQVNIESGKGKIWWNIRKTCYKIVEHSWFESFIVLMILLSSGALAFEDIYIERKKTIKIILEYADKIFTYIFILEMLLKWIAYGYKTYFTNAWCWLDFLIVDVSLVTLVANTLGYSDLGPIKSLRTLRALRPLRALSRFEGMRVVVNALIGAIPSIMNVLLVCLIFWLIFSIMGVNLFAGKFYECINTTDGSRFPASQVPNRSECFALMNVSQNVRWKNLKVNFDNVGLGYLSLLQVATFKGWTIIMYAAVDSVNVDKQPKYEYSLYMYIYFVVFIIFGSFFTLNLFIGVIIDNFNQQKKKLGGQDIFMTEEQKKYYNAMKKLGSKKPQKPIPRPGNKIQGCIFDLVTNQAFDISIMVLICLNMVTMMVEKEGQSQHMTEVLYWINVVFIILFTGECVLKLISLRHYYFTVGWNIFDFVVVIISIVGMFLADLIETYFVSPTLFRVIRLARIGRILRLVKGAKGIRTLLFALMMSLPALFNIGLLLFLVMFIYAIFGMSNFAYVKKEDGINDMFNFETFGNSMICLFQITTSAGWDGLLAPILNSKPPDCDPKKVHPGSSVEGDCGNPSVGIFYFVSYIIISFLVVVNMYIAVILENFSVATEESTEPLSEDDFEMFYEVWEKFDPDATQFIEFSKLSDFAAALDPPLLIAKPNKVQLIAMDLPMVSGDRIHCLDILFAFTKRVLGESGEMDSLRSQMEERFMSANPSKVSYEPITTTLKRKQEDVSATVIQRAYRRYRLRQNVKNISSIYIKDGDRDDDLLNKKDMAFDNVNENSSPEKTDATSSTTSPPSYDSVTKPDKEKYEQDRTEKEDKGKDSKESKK
`COc1cc(-c2cc(OC)c(-n3c4c(ccc3=O)CN(S(=O)(=O)Nc3ccon3)CC4)cc2F)ccc1C` came in with an IC50 of 12.3 nM.
`COc1cc(-c2ccc(F)c(F)c2)c(F)cc1-n1c2c(ccc1=O)CN(S(=O)(=O)Nc1ccon1)CC2` yielded an IC50 of 6.7 nM.
On to `COc1cc(-c2ccc(F)c(F)c2)c(F)cc1-n1c2c(ccc1=O)CN(S(=O)(=O)Nc1cccnn1)CC2`, for which the IC50 was found to be 23.7 nM.
The value for `COc1cc(-c2cc(F)cc(Cl)c2)c(F)cc1-n1c2c(ccc1=O)CN(S(=O)(=O)Nc1ccon1)CC2` was 4.3 nM.
To `COc1cc(-c2ccc(Cl)c(C)c2)c(F)cc1-n1c2c(ccc1=O)CN(S(=O)(=O)Nc1cccnn1)CC2` belongs 19.6 nM.
Compound `COc1cc(-c2cccc(OC(F)F)c2)c(F)cc1-n1c2c(ccc1=O)CN(S(=O)(=O)Nc1ccon1)CC2` returned an IC50 of 5.5 nM.
Consider `COc1cc(-c2cccc(C(F)(F)F)c2)c(F)cc1-n1c2c(ccc1=O)CN(S(=O)(=O)Nc1ccon1)CC2`, for which the IC50 worked out at 4.7 nM.

Source of the values: ChEMBL document CHEMBL3877333, “Bicyclic Ketone Sulfonamide Compounds” (ACS Med Chem Lett, 2017).
